Experimental findings from PubChem BioAssay (NCI) are described below.

Common to all, as to assay: DTP human tumour cell line panel, 48 h
In assay [1] the test system is SW-620 colon.
Assay [2] deals with HT29 colon.
Assay [3] has as its system LOX IMVI melanoma.
Assay [4] concerns 786-0 renal.
Assay [5] relates to PC-3 prostate.
Assay [6] has as its system CCRF-CEM leukemia.
For assay [7], the system named is ACHN renal.
In assay [8] the test system is U251 CNS.
The test system of assay [9] is HOP-92 NSCLC.
Assay [10] relates to BT-549 breast.

Structures are written as SMILES.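 How tested: cells in 96-well plates exposed to compound for 48 hours at five concentrations. GI50 marks 50% less growth. TGI: concentration producing complete growth inhibition.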

`C=C1C(=O)O[C@H]2[C@H]1CC/C(COC(=O)C(=O)c1c[nH]c3ccc(Cl)cc13)=C\CC[C@@]1(C)O[C@@H]21`: the GI50 (usually the concentration that inhibits growth by half) in assay [1] is 1.67 µM; in [2], 0.781 µM; in [3], 0.183 µM; in [4], 1.53 µM; in [5], 1.76 µM; in [6], 0.375 µM. Moreover, the GI50 in assay [7] is 1.32 µM; in assay [8], 1.9 µM; in [9], 1.86 µM; in assay [10], 1.38 µM. Besides, the TGI – broadly, the concentration giving total growth inhibition – in [1] turned out to be 10.3 µM; in assay [2], 3.01 µM; in [3], 0.396 µM; in assay [4], 2.93 µM; in [5], 3.57 µM; in assay [6], 10.1 µM. In addition, the TGI is 2.7 µM in assay [7], 3.45 µM in assay [8], 3.42 µM in [9] and 3.19 µM in assay [10].
For the compound `CC(=O)OC1CC2(O)C(CCC3(C)C(c4ccc(=O)oc4)CCC32O)C2(C)CCC(OC3OC(CO)C(O)C(O)C3O)C=C12` (stereo not drawn), the GI50 in assay [1] was 0.0275 µM; in assay [2], 0.045 µM; in assay [3], 0.0275 µM; in [4], 0.0129 µM; in assay [5], 0.0248 µM; in assay [6], < 0.01 µM. The GI50 in [7] is < 0.01 µM; in [8] it was 0.0348 µM; in assay [9], 0.0494 µM; in assay [10] it was 0.0101 µM. In addition, the total growth inhibition concentration (TGI) in assay [1] came to 0.144 µM; in [2], 0.381 µM; in assay [3], 0.109 µM; in assay [4] it was 0.03 µM; in [5], 0.125 µM; in assay [6], 0.115 µM. The TGI in [7] was found to be 0.036 µM; in [8], 0.136 µM; in [9], 0.318 µM; in assay [10] it was 0.0661 µM.
For the compound `Cc1cccc2c(N=Nc3ccccc3[N+](=O)[O-])c(O)[nH]c12`, the TGI in assay [1] was > 74.6 µM; in assay [2], > 52.7 µM; in assay [3], 27.1 µM; in [4] it was 11.8 µM; in [5], 38.4 µM; in [6], > 43.6 µM. The TGI in assay [7] was 18.8 µM; in assay [8], 7.68 µM; in assay [9], 8.16 µM; in [10] it was > 74.1 µM.
In the case of `Cc1ccc(NC(=O)N2CCCCC2)cc1[N+](=O)[O-]`, the GI50 in [1], in assay [2], in assay [3], in assay [4], in assay [5] and in assay [6] was > 100 µM each time. The GI50 in assay [7], in assay [8], in assay [9] and in assay [10] was > 100 µM throughout. Besides, the TGI in [1], in [2], in assay [3], in [4], in assay [5] and in [6] was > 100 µM throughout. The TGI in [7], in assay [8], in assay [9] and in assay [10] was > 100 µM in each case.
With `O=C1c2ccccc2C(=O)c2sc(Nc3ccc(Cl)cc3)nc21`, the TGI in assay [1] is 3.31 µM; in [2], 15.5 µM; in [3], 2.91 µM; in assay [4], 3.93 µM; in assay [5] it was 10.5 µM; in assay [6], 4 µM. In addition, the TGI in assay [7] came to 3.06 µM; in assay [8], 3.55 µM; in [9], 22.9 µM; in assay [10] it was 11.7 µM. Also, the GI50 in assay [5] was 2.49 µM; in assay [9] it was 10.3 µM; in [10], 2.87 µM.
For the compound `N#CSCC1CC(O)(c2ccccc2)CC(c2ccc(Cl)cc2)O1` (stereo not drawn), the GI50 was 1.83 µM in assay [1]; 3.44 µM in assay [2]; 1.59 µM in [3]; 2.14 µM in assay [4]; 2.47 µM in [5]; 2.55 µM in [6]. In addition, the GI50 was 2.78 µM in assay [7], 2.64 µM in assay [8], 2.21 µM in [9] and 2.35 µM in assay [10]. Also, the TGI came out at 3.35 µM in assay [1]; 8.74 µM in assay [2]; 2.95 µM in [3]; 4.66 µM in [4]; 7.49 µM in assay [5]; 11.2 µM in assay [6]. In addition, the TGI in assay [7] was found to be 8.25 µM; in [8] it was 9.03 µM; in assay [9], 5.58 µM; in assay [10], 4.83 µM.
On to `CC(C)c1ccc(/C=N/N=C(N)N)cc1`, for which the GI50 in assay [1] is 2.9 µM; in assay [2], 3.19 µM; in assay [3], 3.49 µM; in [4], 12.4 µM; in assay [5], 4.25 µM; in assay [6], 4.33 µM. In addition, the GI50 in [7] was 11.7 µM; in assay [8] it was 4.63 µM; in [9], 1.35 µM; in assay [10] it was 13.2 µM. In addition, the TGI was determined as 11.6 µM in assay [1]; 9.65 µM in assay [2]; 14.7 µM in assay [3]; 27.3 µM in assay [4]; 18.6 µM in [5]; 47.5 µM in assay [6]. The TGI turned out to be 25.4 µM in assay [7], 17 µM in [8], 7.27 µM in assay [9] and 30 µM in assay [10].
